Like-named read-outs stand apart in the source and are kept apart here.
Tests used:
Clint determination [1] = type: in vitro ADME; conditions: rat, microsomes, pH 7.4, rat microsomes, read-out: Clint (μL/min/mg) Rat
Clint determination [2] = type: in vitro ADME; conditions: human, microsomes, pH 7.4, human microsomes, read-out: Clint (μL/min/mg) Human
GAL2 (h) = molecular target: T1, GAL2 (h) (Homo sapiens, UniProt O43603); experiment: CEREP binding panel; conditions: agonist radioligand, read-out: % Inhibition of Control Specific Binding
T1 construct: purchased Millipore KinaseProfiler (kinases); Cerep (receptors and ion channels)
T1 sequence (O43603 whole entry): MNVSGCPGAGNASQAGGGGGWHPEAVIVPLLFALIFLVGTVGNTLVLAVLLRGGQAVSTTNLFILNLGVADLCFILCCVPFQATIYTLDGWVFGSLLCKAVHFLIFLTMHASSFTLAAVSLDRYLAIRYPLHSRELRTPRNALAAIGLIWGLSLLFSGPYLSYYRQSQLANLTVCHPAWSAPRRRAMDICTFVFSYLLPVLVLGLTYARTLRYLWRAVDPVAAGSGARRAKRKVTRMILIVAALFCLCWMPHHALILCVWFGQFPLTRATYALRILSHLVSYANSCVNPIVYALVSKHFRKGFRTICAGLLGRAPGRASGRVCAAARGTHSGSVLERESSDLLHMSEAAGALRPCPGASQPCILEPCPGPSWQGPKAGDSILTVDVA

NK3 (h) = molecular target: T2, NK3 (h) (Homo sapiens, UniProt P29371); experiment: CEREP binding panel; conditions: antagonist radioligand, read-out: % Inhibition of Control Specific Binding
T2 construct: purchased Millipore KinaseProfiler (kinases); Cerep (receptors and ion channels)
T2 sequence (P29371 whole entry): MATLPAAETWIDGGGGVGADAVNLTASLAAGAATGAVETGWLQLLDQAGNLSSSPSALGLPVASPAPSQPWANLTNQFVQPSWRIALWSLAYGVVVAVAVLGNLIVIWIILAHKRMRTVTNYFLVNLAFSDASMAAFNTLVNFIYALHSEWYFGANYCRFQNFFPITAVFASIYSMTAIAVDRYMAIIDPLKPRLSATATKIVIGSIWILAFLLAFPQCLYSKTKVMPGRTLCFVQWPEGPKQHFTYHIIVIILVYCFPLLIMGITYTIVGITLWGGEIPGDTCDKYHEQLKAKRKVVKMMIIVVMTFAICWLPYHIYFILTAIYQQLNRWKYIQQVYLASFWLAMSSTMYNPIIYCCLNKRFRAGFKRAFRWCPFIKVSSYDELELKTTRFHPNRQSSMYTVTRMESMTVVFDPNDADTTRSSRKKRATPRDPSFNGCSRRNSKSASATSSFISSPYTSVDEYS

NOP (ORL1) (h) = molecular target: T3, NOP (ORL1) (h) (Homo sapiens, UniProt P41146); experiment: CEREP binding panel; conditions: agonist radioligand, read-out: % Inhibition of Control Specific Binding
T3 construct: purchased Millipore KinaseProfiler (kinases); Cerep (receptors and ion channels)

5-HT2B (h) = molecular target: T4, 5-HT2B (h) (Homo sapiens, UniProt P41595); experiment: CEREP binding panel; conditions: agonist radioligand, read-out: % Inhibition of Control Specific Binding
T4 construct: purchased Millipore KinaseProfiler (kinases); Cerep (receptors and ion channels)

CAMKIV = molecular target: T5, CAMKIV (Homo sapiens, UniProt Q16566); experiment: Millipore kinase panel; type: biochemical; conditions: read-out: % Control
T5 construct: purchased Millipore KinaseProfiler (kinases); Cerep (receptors and ion channels)

CDK2/CYCLINA = molecular target: T6, CDK2/CYCLINA (Homo sapiens, UniProt P24941); experiment: Millipore kinase panel; type: biochemical; conditions: read-out: % Control
T6 construct: purchased Millipore KinaseProfiler (kinases); Cerep (receptors and ion channels)

FGFR4 = molecular target: T7, FGFR4 (Homo sapiens, UniProt P22455); experiment: Millipore kinase panel; type: biochemical; conditions: read-out: % Control
T7 construct: purchased Millipore KinaseProfiler (kinases); Cerep (receptors and ion channels)
T7 sequence (P22455 22-802): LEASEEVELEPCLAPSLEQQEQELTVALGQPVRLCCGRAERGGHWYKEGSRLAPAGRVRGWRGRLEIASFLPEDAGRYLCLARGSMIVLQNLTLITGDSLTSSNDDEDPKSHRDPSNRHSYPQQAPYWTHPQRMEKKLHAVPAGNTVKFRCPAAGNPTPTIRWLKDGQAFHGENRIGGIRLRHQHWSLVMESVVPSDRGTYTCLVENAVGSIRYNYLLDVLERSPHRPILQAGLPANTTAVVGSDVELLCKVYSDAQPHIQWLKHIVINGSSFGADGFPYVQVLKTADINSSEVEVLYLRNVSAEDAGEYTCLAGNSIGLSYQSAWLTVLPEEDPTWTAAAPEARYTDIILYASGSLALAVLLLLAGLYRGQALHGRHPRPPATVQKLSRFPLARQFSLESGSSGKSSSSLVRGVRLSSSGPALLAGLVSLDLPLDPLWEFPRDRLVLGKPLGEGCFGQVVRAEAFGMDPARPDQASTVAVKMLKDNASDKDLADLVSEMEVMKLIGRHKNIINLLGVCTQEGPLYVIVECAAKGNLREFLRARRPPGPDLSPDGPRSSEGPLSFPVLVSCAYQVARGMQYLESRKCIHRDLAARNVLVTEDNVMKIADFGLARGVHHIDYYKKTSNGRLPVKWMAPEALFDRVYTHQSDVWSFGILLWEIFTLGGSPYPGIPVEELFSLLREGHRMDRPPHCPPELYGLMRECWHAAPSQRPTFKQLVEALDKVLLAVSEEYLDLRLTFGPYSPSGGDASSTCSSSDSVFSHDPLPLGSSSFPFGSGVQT

LYN = molecular target: T8, LYN (Homo sapiens, UniProt P07948); experiment: Millipore kinase panel; type: biochemical; conditions: ATP at Km, read-out: % Control
T8 construct: purchased Millipore KinaseProfiler (kinases); Cerep (receptors and ion channels)

MKK7BETA = molecular target: T9, MKK7BETA (Homo sapiens, UniProt O14733); experiment: Millipore kinase panel; type: biochemical; conditions: read-out: % Control
T9 construct: purchased Millipore KinaseProfiler (kinases); Cerep (receptors and ion channels)
T9 sequence (O14733 whole entry): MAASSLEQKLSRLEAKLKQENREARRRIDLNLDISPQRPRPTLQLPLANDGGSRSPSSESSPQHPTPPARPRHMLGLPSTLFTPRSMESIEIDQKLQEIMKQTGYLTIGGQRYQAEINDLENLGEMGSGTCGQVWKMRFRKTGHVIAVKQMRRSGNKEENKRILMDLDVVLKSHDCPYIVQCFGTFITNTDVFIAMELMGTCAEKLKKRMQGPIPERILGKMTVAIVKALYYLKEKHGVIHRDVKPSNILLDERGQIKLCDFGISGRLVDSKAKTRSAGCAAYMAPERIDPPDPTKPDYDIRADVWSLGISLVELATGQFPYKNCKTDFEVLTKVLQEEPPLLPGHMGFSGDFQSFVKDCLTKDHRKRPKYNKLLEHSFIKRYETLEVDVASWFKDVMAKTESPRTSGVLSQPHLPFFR

MSK2 = molecular target: T10, MSK2 (Homo sapiens, UniProt O75676); experiment: Millipore kinase panel; type: biochemical; conditions: read-out: % Control
T10 construct: purchased Millipore KinaseProfiler (kinases); Cerep (receptors and ion channels)

PKCZETA = molecular target: T11, PKCZETA (Homo sapiens, UniProt Q05513); experiment: Millipore kinase panel; type: biochemical; conditions: read-out: % Control
T11 construct: purchased Millipore KinaseProfiler (kinases); Cerep (receptors and ion channels)
T11 sequence (Q05513 whole entry): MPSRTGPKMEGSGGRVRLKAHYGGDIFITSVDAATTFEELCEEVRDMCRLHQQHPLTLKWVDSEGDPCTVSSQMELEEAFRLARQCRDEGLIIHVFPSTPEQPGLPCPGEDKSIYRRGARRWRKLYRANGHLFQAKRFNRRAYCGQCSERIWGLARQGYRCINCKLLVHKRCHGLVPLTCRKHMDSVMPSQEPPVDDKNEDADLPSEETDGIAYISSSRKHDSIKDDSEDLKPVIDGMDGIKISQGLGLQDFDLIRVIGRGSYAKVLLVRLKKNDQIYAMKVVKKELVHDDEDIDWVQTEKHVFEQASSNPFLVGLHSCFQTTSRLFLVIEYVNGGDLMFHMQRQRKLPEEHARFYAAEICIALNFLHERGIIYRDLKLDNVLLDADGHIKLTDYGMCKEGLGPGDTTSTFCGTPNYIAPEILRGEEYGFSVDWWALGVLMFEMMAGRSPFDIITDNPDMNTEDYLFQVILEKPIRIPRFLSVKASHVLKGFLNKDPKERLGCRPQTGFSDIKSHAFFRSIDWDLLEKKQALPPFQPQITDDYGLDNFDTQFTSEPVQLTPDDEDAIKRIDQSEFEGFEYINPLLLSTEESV

PYK2 = molecular target: T12, PYK2 (Homo sapiens, UniProt Q14289); experiment: Millipore kinase panel; type: biochemical; conditions: read-out: % Control
T12 construct: purchased Millipore KinaseProfiler (kinases); Cerep (receptors and ion channels)
T12 sequence (Q14289 whole entry): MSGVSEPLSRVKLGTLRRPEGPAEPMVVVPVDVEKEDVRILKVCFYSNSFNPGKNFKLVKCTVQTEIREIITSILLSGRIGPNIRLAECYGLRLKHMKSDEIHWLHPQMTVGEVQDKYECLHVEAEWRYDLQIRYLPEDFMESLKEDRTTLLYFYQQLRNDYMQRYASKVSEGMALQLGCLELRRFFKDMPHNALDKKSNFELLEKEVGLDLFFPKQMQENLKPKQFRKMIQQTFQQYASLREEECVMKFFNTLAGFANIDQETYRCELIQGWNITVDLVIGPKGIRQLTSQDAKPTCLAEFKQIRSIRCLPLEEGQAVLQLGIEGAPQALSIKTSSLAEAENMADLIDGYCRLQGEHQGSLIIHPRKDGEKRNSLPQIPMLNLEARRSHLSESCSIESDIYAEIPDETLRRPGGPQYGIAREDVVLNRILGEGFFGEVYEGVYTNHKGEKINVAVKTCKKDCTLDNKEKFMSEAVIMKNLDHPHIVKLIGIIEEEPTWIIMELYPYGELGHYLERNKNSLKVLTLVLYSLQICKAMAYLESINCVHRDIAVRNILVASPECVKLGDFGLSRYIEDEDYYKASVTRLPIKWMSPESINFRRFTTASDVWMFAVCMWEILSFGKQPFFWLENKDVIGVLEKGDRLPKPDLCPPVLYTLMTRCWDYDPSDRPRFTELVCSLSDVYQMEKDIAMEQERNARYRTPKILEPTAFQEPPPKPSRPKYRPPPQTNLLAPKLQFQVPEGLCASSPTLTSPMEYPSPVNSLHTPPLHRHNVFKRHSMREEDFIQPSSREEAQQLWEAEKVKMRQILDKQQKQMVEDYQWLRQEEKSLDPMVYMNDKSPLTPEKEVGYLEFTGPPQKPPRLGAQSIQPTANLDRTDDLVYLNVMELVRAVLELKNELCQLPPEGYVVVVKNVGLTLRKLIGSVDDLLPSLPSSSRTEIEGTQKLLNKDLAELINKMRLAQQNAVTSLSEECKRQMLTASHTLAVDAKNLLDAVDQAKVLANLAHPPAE

ROS = molecular target: T13, ROS (Homo sapiens, UniProt P08922); experiment: Millipore kinase panel; type: biochemical; conditions: read-out: % Control
T13 construct: purchased Millipore KinaseProfiler (kinases); Cerep (receptors and ion channels)

RSK3 = molecular target: T14, RSK3 (Homo sapiens, UniProt Q15349); experiment: Millipore kinase panel; type: biochemical; conditions: read-out: % Control
T14 construct: purchased Millipore KinaseProfiler (kinases); Cerep (receptors and ion channels)
T14 sequence (Q15349 whole entry): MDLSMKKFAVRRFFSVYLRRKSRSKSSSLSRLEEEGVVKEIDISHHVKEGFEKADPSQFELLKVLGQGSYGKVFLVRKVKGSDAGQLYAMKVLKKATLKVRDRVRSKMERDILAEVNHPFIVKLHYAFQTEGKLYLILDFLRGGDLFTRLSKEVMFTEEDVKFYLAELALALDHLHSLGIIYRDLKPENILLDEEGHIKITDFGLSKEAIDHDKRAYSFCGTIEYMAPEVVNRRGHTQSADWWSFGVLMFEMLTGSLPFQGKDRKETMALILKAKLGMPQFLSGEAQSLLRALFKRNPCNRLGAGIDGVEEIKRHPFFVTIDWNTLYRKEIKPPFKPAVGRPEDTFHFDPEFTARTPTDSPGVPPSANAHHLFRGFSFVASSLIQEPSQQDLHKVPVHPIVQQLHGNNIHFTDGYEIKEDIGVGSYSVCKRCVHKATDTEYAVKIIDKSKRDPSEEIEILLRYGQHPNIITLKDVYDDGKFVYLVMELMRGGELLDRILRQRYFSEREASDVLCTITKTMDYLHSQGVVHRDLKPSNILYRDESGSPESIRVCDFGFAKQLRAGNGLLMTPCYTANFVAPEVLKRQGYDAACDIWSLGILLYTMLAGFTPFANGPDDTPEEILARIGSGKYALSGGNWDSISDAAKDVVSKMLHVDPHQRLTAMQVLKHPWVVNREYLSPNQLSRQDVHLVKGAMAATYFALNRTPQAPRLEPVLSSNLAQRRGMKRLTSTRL

SIK = molecular target: T15, SIK (Homo sapiens, UniProt P57059); experiment: Millipore kinase panel; type: biochemical; conditions: read-out: % Control
T15 construct: purchased Millipore KinaseProfiler (kinases); Cerep (receptors and ion channels)

DCAMKL2 = molecular target: T16, DCAMKL2 (Homo sapiens, UniProt Q8N568); experiment: Millipore kinase panel; type: biochemical; conditions: read-out: % Control
T16 construct: purchased Millipore KinaseProfiler (kinases); Cerep (receptors and ion channels)

GRK6 = molecular target: T17, GRK6 (Homo sapiens, UniProt P43250); experiment: Millipore kinase panel; type: biochemical; conditions: read-out: % Control
T17 construct: purchased Millipore KinaseProfiler (kinases); Cerep (receptors and ion channels)
T17 sequence (P43250 whole entry): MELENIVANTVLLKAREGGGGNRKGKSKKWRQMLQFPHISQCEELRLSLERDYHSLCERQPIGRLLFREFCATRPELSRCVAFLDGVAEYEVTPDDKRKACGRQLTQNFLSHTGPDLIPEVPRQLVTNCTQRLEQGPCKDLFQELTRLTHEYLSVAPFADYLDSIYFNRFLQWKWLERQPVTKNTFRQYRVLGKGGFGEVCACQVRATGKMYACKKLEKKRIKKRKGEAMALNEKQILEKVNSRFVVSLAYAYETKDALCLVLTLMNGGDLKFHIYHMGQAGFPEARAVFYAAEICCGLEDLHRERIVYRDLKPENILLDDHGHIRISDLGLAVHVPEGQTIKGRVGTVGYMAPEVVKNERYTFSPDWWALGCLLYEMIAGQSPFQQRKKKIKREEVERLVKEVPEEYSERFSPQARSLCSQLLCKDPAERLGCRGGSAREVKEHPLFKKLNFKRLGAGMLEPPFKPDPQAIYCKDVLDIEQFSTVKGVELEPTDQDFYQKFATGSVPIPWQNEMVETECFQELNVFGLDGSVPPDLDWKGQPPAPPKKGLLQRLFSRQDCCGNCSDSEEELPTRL

TAO3 = molecular target: T18, TAO3 (Homo sapiens, UniProt Q9H2K8); experiment: Millipore kinase panel; type: biochemical; conditions: read-out: % Control
T18 construct: purchased Millipore KinaseProfiler (kinases); Cerep (receptors and ion channels)

ACK1 = molecular target: T19, ACK1 (Homo sapiens, UniProt Q07912); experiment: Millipore kinase panel; type: biochemical; conditions: read-out: % Control
T19 construct: purchased Millipore KinaseProfiler (kinases); Cerep (receptors and ion channels)

IGF-1R, ACTIVATED = molecular target: T20, IGF-1R, ACTIVATED (Homo sapiens, UniProt P08069); experiment: Millipore kinase panel; type: biochemical; conditions: read-out: % Control
T20 construct: purchased Millipore KinaseProfiler (kinases); Cerep (receptors and ion channels)

V1a (h) = molecular target: T21, V1a (h) (Homo sapiens, UniProt P37288); experiment: CEREP binding panel; conditions: agonist radioligand, read-out: % Inhibition of Control Specific Binding
T21 construct: purchased Millipore KinaseProfiler (kinases); Cerep (receptors and ion channels)

ABL(T315I) = molecular target: T22, ABL(T315I) (Homo sapiens, UniProt P00519, T315I); experiment: Millipore kinase panel; type: biochemical; conditions: read-out: % Control
T22 construct: purchased Millipore KinaseProfiler (kinases); Cerep (receptors and ion channels)

AURKA = molecular target: T23, AURKA (Homo sapiens, UniProt O14965); experiment: Millipore kinase panel; type: biochemical; conditions: read-out: % Control
T23 construct: purchased Millipore KinaseProfiler (kinases); Cerep (receptors and ion channels)

CK1DELTA = molecular target: T24, CK1DELTA (Homo sapiens, UniProt P48730); experiment: Millipore kinase panel; type: biochemical; conditions: read-out: % Control
T24 construct: purchased Millipore KinaseProfiler (kinases); Cerep (receptors and ion channels)

EGFR(L858R) = molecular target: T25, EGFR(L858R) (Homo sapiens, UniProt P00533, L858R); experiment: Millipore kinase panel; type: biochemical; conditions: read-out: % Control
T25 construct: purchased Millipore KinaseProfiler (kinases); Cerep (receptors and ion channels)

FLT3(D835Y) = molecular target: T26, FLT3(D835Y) (Homo sapiens, UniProt P36888, D835Y); experiment: Millipore kinase panel; type: biochemical; conditions: read-out: % Control
T26 construct: purchased Millipore KinaseProfiler (kinases); Cerep (receptors and ion channels)

CKIT(D816V) = molecular target: T27, CKIT(D816V) (Homo sapiens, UniProt P10721, D816V); experiment: Millipore kinase panel; type: biochemical; conditions: read-out: % Control
T27 construct: purchased Millipore KinaseProfiler (kinases); Cerep (receptors and ion channels)

NEK11 = molecular target: T28, NEK11 (Homo sapiens, UniProt Q8NG66); experiment: Millipore kinase panel; type: biochemical; conditions: read-out: % Control
T28 construct: purchased Millipore KinaseProfiler (kinases); Cerep (receptors and ion channels)

P70S6K = molecular target: T29, P70S6K (Homo sapiens, UniProt P23443); experiment: Millipore kinase panel; type: biochemical; conditions: read-out: % Control
T29 construct: purchased Millipore KinaseProfiler (kinases); Cerep (receptors and ion channels)

PKCBETAI = molecular target: T30, PKCBETAI (Homo sapiens, UniProt P05771); experiment: Millipore kinase panel; type: biochemical; conditions: read-out: % Control
T30 construct: purchased Millipore KinaseProfiler (kinases); Cerep (receptors and ion channels)

PKCBII = molecular target: T31, PKCBII (Homo sapiens, UniProt P05771); experiment: Millipore kinase panel; type: biochemical; conditions: read-out: % Control
T31 construct: purchased Millipore KinaseProfiler (kinases); Cerep (receptors and ion channels)

PKCGAMMA = molecular target: T32, PKCGAMMA (Homo sapiens, UniProt P05129); experiment: Millipore kinase panel; type: biochemical; conditions: read-out: % Control
T32 construct: purchased Millipore KinaseProfiler (kinases); Cerep (receptors and ion channels)

EGFR(T790M,L858R) = molecular target: T33, EGFR(T790M,L858R) (Homo sapiens, UniProt P00533, L858R/T790M); experiment: Millipore kinase panel; type: biochemical; conditions: read-out: % Control
T33 construct: purchased Millipore KinaseProfiler (kinases); Cerep (receptors and ion channels)

CKIT(V654A) = molecular target: T34, CKIT(V654A) (Homo sapiens, UniProt P10721, V654A); experiment: Millipore kinase panel; type: biochemical; conditions: read-out: % Control
T34 construct: purchased Millipore KinaseProfiler (kinases); Cerep (receptors and ion channels)

ABL (H396P) = molecular target: T35, ABL (H396P) (Homo sapiens, UniProt P00519, H396P); experiment: Millipore kinase panel; type: biochemical; conditions: read-out: % Control
T35 construct: purchased Millipore KinaseProfiler (kinases); Cerep (receptors and ion channels)

PI3 KINASE (P110B/P85B) = molecular target: T36, PI3 KINASE (P110B/P85B) (Mus musculus, UniProt Q8BTI9); experiment: Millipore kinase panel; type: biochemical; conditions: read-out: % Control
T36 construct: purchased Millipore KinaseProfiler (kinases); Cerep (receptors and ion channels)

FMS(Y969C) = molecular target: T37, FMS(Y969C) (Homo sapiens, UniProt P07333, Y969C); experiment: Millipore kinase panel; type: biochemical; conditions: read-out: % Control
T37 construct: purchased Millipore KinaseProfiler (kinases); Cerep (receptors and ion channels)

PRKAA2 = molecular target: T38, PRKAA2 (Homo sapiens, UniProt P54646); experiment: Millipore kinase panel; type: biochemical; conditions: read-out: % Control
T38 construct: purchased Millipore KinaseProfiler (kinases); Cerep (receptors and ion channels)

CYP450 2B8 = CYP450 2B8 (Homo sapiens, UniProt P20813); experiment: CYP450 inhibition

Row | SMILES | inhibition at 10 µM (GAL2 (h)) [%] | inhibition at 10 µM (NK3 (h)) [%] | inhibition at 10 µM (NOP (ORL1) (h)) [%] | inhibition at 10 µM (5-HT2B (h)) [%] | remaining activity at 1 µM (CAMKIV) [%] | remaining activity at 1 µM (CDK2/CYCLINA) [%] | remaining activity at 1 µM (FGFR4) [%] | remaining activity at 1 µM (MKK7BETA) [%] | remaining activity at 1 µM (MSK2) [%] | remaining activity at 1 µM (PKCZETA) [%] | remaining activity at 1 µM (PYK2) [%] | remaining activity at 1 µM (ROS) [%] | remaining activity at 1 µM (RSK3) [%] | remaining activity at 1 µM (SIK) [%] | remaining activity at 1 µM (DCAMKL2) [%] | remaining activity at 1 µM (GRK6) [%] | remaining activity at 1 µM (TAO3) [%] | remaining activity at 1 µM (IGF-1R, ACTIVATED) [%] | also measured
1 | O=C1NCCC12CCN(c1c(Cl)cncc1-c1ccc(N3CCOCC3)cc1)CC2 [Compound 44, 8-(3-Chloro-5-(4-morpholin-4-ylphenyl)pyridin-4-yl)-2,8-diazaspiro[4.5]decan-1-one] | -22 | 5 | 12 | -4 | -8 | -9 | 7 | 17 | 0 | 5 | -6 | 2 | 1 | -3 | 0 | -1 | -22 | 3 | microsomal CLint at 1 μM (Clint determination [1]): 41 µL/min/mg; microsomal CLint at 1 μM (Clint determination [2]): 115 µL/min/mg; remaining activity at 1 µM (LYN): 31%; remaining activity at 1 µM (ACK1): 0%
2 | Cn1cc(-c2ccc(-c3cncc(Cl)c3N3CCC4(CCNC4=O)CC3)cc2)cn1 [Compound 74, 8-(3-Chloro-5-(4-(1-methyl-1H-pyrazol-4-yl)phenyl)pyridin-4-yl)-2,8-diazaspiro[4.5]decan-1-one] | 2 | 4 | 3 | 6 | 6 | -8 | 0 | 68 | -6 | -7 | 5 | 7 | -5 | 20 | 1 | -1 | -24 | 11 | inhibition at 10 µM (V1a (h)): -7%; remaining activity at 1 µM (ABL(T315I)): 7%; remaining activity at 1 µM (AURKA): 6%; remaining activity at 1 µM (CK1DELTA): 5%; remaining activity at 1 µM (EGFR(L858R)): 1%; remaining activity at 1 µM (FLT3(D835Y)): -11%; remaining activity at 1 µM (CKIT(D816V)): 7%; remaining activity at 1 µM (NEK11): 7%; remaining activity at 1 µM (P70S6K): -15%; remaining activity at 1 µM (PKCBETAI): -23%; remaining activity at 1 µM (PKCBII): -3%; remaining activity at 1 µM (PKCGAMMA): 2%; remaining activity at 1 µM (EGFR(T790M,L858R)): -4%; remaining activity at 1 µM (CKIT(V654A)): -16%; remaining activity at 1 µM (ABL (H396P)): 17%; remaining activity at 1 µM (PI3 KINASE (P110B/P85B)): -1%; remaining activity at 1 µM (FMS(Y969C)): -31%; remaining activity at 1 µM (PRKAA2): 2%; IC50 (CYP450 2B8): > 20 µM

From PMC4767141, “Discovery of Potent, Orally Bioavailable, Small-Molecule Inhibitors of WNT Signaling from a Cell-Based Pathway Screen” (Journal of Medicinal Chemistry, 2015)
